5 compounds from BindingDB's records for doi:10.1073/pnas.0805677105 (Burnham Institute For Medical Research, 2008) can be followed below.

The target of assay [1] is T1, Mitogen-activated protein kinase 8 (Homo sapiens, UniProt P45983). In words: DELFIA Assay (Dissociation Enhanced Lanthanide Fluoro-Immuno Assay). As to conditions: pH 7.8. On the procedure:
Compound was evaluated for its ability to disrupt the interaction of pepJIP1 with JNK1 by using DELFIA assay. DELFIA is a heterogeneous assay whereby a biotin-linked pepJIP1 is adsorbed onto a streptavidin-coated plate followed by incubation with GST-JNK1. […] Controls include unlabeled peptide and blanks receiving no compounds.

In assay [2] the target is T1, Mitogen-activated protein kinase 8. In words: In Vitro Kinase Assay (LanthaScreen Kinase Assay). Particulars: pH 7.5; 22 °C. In general terms: In TR-FRET formats the signal depends on donor and acceptor labels being close together.

T1 sequence (P45983 whole entry): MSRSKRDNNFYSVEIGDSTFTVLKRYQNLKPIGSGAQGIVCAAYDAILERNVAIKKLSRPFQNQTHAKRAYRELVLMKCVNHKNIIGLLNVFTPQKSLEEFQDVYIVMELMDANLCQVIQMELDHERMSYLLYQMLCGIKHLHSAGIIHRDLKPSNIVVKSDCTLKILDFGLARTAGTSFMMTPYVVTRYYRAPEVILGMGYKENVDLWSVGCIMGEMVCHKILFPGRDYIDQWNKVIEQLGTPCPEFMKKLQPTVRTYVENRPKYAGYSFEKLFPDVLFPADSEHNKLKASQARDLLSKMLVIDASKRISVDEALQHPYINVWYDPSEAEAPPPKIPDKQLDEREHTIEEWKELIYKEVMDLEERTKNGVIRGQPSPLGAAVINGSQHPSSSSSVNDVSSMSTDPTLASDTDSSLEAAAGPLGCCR

The IC50 is the concentration needed to halve the response being measured. Consider `O=c1[nH]nc(Sc2ccc([N+](=O)[O-])s2)n1-c1ccc2c(c1)OCCO2` [4-(2,3-dihydro-1,4-benzodioxin-6-yl)-5-[(5-nitrothiophen-2-yl)sulfanyl]-4H-1,2,4-triazol-3-ol], for which the 50% inhibitory concentration (IC50) in assay [1] was > 25 µM; in assay [2] it was > 100 µM.
Taken in the same sequence, the figures for `Cc1nc(Sc2nnnn2-c2ccccc2)sc1C(=O)O` [4-methyl-2-[(1-phenyl-1H-1,2,3,4-tetrazol-5-yl)sulfanyl]-1,3-thiazole-5-carboxylic acid] were 7.5 µM and > 100 µM.
Taken in the same sequence, the figures for `c1ccc(CSc2nnnn2-c2ccccc2)cc1` [5-(benzylsulfanyl)-1-phenyl-1H-1,2,3,4-tetrazole] were > 25 µM and > 100 µM.
Taken in the same sequence, the figures for `O=c1[nH]nc(Sc2ncc([N+](=O)[O-])s2)n1-c1ccccc1` [5-[(5-nitro-1,3-thiazol-2-yl)sulfanyl]-4-phenyl-4H-1,2,4-triazol-3-ol] were 0.237 µM and 3.1 µM.
On to `O=[N+]([O-])c1cnc(Sc2nnnn2-c2ccccc2)s1` [5-nitro-2-[(1-phenyl-1H-1,2,3,4-tetrazol-5-yl)sulfanyl]-1,3-thiazole], for which the IC50 turned out to be 0.183 µM in assay [1] and 3.3 µM in assay [2].
